In patent publication US20030130298A1, “Cd45 inhibitors” (priority 1999, published 2003):
pIC50: −log10 of the molar value.

Legend:
[1] = molecular target: T1, CD45 (Homo sapiens, UniProt P08575); assay: Phosphatase assay using lck 10-mer as substrate; format: biochemical; conditions: lck carboxy-terminal peptide TEGQpYQPQP substrate, read-out: Ick IC50
T1 construct: purchased BIOMOL (Plymouth Meeting, P.A.)
T1 sequence (P08575 599-1306 limits assumed): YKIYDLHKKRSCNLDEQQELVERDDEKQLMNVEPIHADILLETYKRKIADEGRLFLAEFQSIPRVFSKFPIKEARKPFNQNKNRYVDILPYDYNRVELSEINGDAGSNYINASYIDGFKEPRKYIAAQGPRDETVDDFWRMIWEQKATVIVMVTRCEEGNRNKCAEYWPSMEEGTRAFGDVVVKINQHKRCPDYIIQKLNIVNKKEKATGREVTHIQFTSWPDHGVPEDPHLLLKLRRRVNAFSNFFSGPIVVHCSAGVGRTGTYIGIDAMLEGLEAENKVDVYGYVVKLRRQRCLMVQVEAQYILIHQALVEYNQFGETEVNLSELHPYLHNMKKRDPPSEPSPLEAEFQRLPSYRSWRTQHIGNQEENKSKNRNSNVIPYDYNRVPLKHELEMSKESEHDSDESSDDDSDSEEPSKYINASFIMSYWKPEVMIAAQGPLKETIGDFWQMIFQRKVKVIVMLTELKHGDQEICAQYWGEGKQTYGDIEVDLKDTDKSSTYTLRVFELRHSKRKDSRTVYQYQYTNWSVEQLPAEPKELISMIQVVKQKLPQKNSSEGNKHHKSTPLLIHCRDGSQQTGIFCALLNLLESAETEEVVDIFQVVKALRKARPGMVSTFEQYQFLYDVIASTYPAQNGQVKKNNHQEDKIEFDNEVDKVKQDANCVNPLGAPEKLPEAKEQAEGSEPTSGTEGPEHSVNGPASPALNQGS
Protocol: (§1) Potent inhibitors of CD45 have been discovered. Such inhibitors are useful for the treatment of various autoimmune disorders as well as for treatment of OGR. Inhibition of the phosphatase activity of CD45 by compounds of the present invention has been shown by incubating the cytosolic portion of CD45 with the compounds and p-nitrophenyl phosphate (pNPP), a phosphatase substrate. Spectrophotometric monitoring has shown that the liberation of p-nitrophenol from the substrate by CD45 is inhibited in the presence of the compounds disclosed herein. Inhibition of the phosphatase activity of CD45 by compounds of the present invention has also been shown using a p56^lckcarboxy-terminal phosphorylated peptide as a substrate.
Phosphatase activity was assayed in 96 well plates in a buffer containing final concentrations of 25 mM HEPES at pH 7.2, 5 mM DTT and 10 μg/mL BSA, using the lck carboxy-terminal peptide TEGQpYQPQP as the substrate (Cho, H., Krishnaraj, R., Itoh, M., Kitas, E., Bannwarth, W., Saito, H., Walsh, C. T. 1993. Substrate specificities of catalytic fragments of protein tyrosine phosphatases (HPTPb, LAR, and CD45) toward the phosphotyrosylpeptide substrates and thiophosphotyrosylated peptides as inhibitors. Protein Science 2:977-984). Compounds were tested in a range from 30 to 0.01 μM in a final concentration of 5% DMSO. Enzyme was incubated with substrate, with or without compound, at room temperature for 1.5 h. At the end of the incubation period, BIOMOL “Green Reagent” (BIOMOL, Plymouth Meeting, Pa.) was added to each well, the plates incubated at room temperature for 30 min and absorbance read at 620 nm.

[2] = Cytotoxicity assay (Calcein-AM uptake); format: cell-based; conditions: human, PHA-expanded T-cell lymphoblasts derived from PBMC, overnight incubation, Calcein-AM viability
Protocol: Calcein-AM (Molecular Probes, Eugene, Oreg.) uptake, as a quantitative measure of cell viability, was used to evaluate the toxic effect of compounds on T cells.
The T-cell lymphoblasts were purified by separation over Lymphoprep, plated at 2×10 ^5/well in a round bottom 96-well plate containing RPMI with compound and incubated overnight at 37° C. in an incubator containing 5% CO2. The dilution scheme and culture media were the same as those used in the T-cell proliferation assay. After the incubation period, cells were washed with Dulbecco's phosphate- buffered saline (D-PBS) and incubated with 1 μM Calcein-AM for 30-45 min in D-PBS as described in the technical sheet provided with The LIVE/DEAD Viability/Cytotoxicity Kit from Molecular Probes.

[3] = system: Peripheral blood mononuclear cells (T cells); assay: T cell proliferation assay (anti-CD3 OKT3 activated PBMC, [3H]thymidine); format: cell-based; conditions: Homo sapiens; PBMC activated with OKT3 30 ng/mL; read-out: T cell prolif. IC50
Protocol: Whole blood was obtained from healthy human blood donors. Peripheral blood mononuclear cells (“PBMC”) were isolated using Lymphoprep density-gradient centrifugation (Nycomed Amersham, Oslo, Norway), washed, counted and resuspended at 2×10^6 cells/mL in RPMI 1640 medium containing glutamine, 0.1 mg/mL gentamycin and 10% heat inactivated human serum. PBMC were transferred to 96-well plates (2×10^5 cells/well) containing compound or vehicle control, with the final concentration of DMSO not to exceed 0.3%, and incubated for 1 hour before addition of the activating anti-CD3 antibody, OKT3 (30 ng/mL). After 24 hours in culture, the cells were pulsed with [^3H]thymidine (1 μCi/well) overnight and harvested the next day onto 96-well Packard GF/C filter plates using a Packard Cell Harvester (Packard Instruments, Meriden, Conn.). The filter plate was dried, the bottom of the plate sealed, 25 μL of Microscint 20 scintillation fluid added to each well, the top of the plate sealed with TopSeal-A, and the plate counted on a Packard TopCount. The data from the TopCount is transferred into Excel 5 (Microsoft, Redmond, Wash.) and formatted for EC50 determination using Prism software (GraphPad Software, San Diego, Calif.).

[4] = molecular target: T1, CD45; assay: Phosphatase assay using pNPP as substrate; format: biochemical; conditions: pH 7.0
Protocol: as §1
CD45 enzyme was obtained from BIOMOL (Plymouth Meeting, P.A.). Phosphatase activity was assayed in a buffer containing final concentrations of 25 mM imidazole at pH 7.0, 50 mM NaCl, 2.5 mM ethylenediaminetetraacetic acid (“EDTA”), 5 mM dithiothreitol (“DTT”) and 10 μg/mL bovine serum albumin (“BSA”) using pNPP as a substrate. […] Activity was measured by following the increase in absorbance at 405 nm using a SpectraMax Plus spectrophotometric plate reader (Molecular Devices, Sunnyvale, Calif.).

| pIC50 ([1]; pH 7.2, 1.5 h) | pIC50 [4] | pIC50 ([1]; pH 7.2, […]) | Compound | CC50 [2] | pIC50 [3] |
| --- | --- | --- | --- | --- | --- |
| < 4.52 | 5.64 |  | O=C1C(=O)c2ncccc2-c2ccccc21 [Example 1, benzo[f]quinoline-5,6-dione] | 7 µM | 6.40 |
|  | 6.00 | 5.51 | O=C1C(=O)c2cccnc2-c2ccccc21 [Example 2, benzo[h]quinoline-5,6-dione] | 2.4 µM | 6.62 |
|  | 5.96 | 5.35 | O=C1C(=O)c2ccoc2-c2ccccc21 [Example 3, naphtho[,1,2b]furan-4,5-dione] | 3.5 µM |  |
| < 4.52 | 5.82 |  | O=C1C(=O)c2ccsc2-c2ccccc21 [Example 4, naphtho[1,2-b]thiophene-4,5-dione] | 3.5 µM |  |
